In patent US20230414611A1, “REFINED USES OF GABA A RECEPTOR MODULATORS IN TREATMENT OF FRAGILE X SYNDROME” (CHILDREN'S HOSPITAL MEDICAL CENTER, priority 2020, published 2023):
Entries after “also recorded” stand apart in the source; their conditions may differ.

Legend:
Format in all cases: in vivo, human
[1] = tested on: adults with Fragile X Syndrome (FXS); test: Aberrant Behavior Checklist (ABC / ABC-C subscales); settings: for ABC_C_Subscale_1 Irritability / ABC_C_Subscale_2 Lethargy / ABC_C_Subscale_3 Stereotypy / ABC_C_Subscale_4 Hyperactivity / ABC_C_Subscale_5 Inappropriate Speech: undetectable FMRP males (n=5), mean ± SD
From the text: Secondary Outcome Measures: • Change in the social withdrawal subscale score of the Aberrant Behavior Checklist (ABC) through the end of the study, approximately 12 weeks. The ABC is the gold standard parent/caregiver reported behavioral outcome measure for use in development disability clinical trials. • Change in the Pediatric Anxiety Rating Scale (PARS) through the end of the study, approximately 12 weeks. The PARS is the gold standard parent/caregiver reported anxiety outcome measure for use in Fragile X Syndrome clinical trials.
The Aberrant Behavior Checklist (ABC) is a standardized rating scale used for assessing problematic behavior designed for use in developmental disabilities, with validity for use in FXS (CITE). ABC-C is the original factor structure with 5 subscales: Irritability, Lethargy, Stereotypy, Hyperactivity, and Inappropriate Speech. See, e.g., Aman et al., J. Child Adolesc Psychopharmacol. 30(8):512-521 (2020), the relevant disclosures of which are incorporated by reference for the subject matter and purpose referenced herein. ABC was only assessed chronically (two weeks after treatment). Overall, no indication that ABC changed during chronic phase.

[2] = tested on: adults with Fragile X Syndrome (FXS); test: EEG relative band power
From the text: Brain cells communicate via electrical impulses and are active all the time, even a subject is asleep. Electroencephalogram (EEG) detects the electrical activity in the brain. EEG can measure alpha waves, beta waves, and gamma waves. FXS patients typically show low alpha (Alpha waves are involved in higher level, complex cognition) and elevated gamma (representing noise, excessive synaptic connectivity-brain cells over connecting). Gamma activations represent high frequency brain rhythms, which may coincide with functional brain activity and/or muscular activity.
EEG statistical analysis strategies used in this study include: (a) electrode-specific relative band power estimation; (b) applying crossover-trial modeling to validate the absence of period effect; and (c) testing the within-subject relative power change per condition (i.e., determining impact of AZD7325 on gamma power in a treated patient).

[3] = tested on: adults with Fragile X Syndrome (FXS); test: ABC-FXS subscales; parameters: scale not given here; settings: undetectable FMRP males (n=5), mean ± SD
From the text: Tables 11-16 below summarize alternative […] scoring for the FXS patient treated with AZD7325. ABC-FXS was created for use within this population to take into account FXS-specific symptoms, and has six subscales: Irritability, Social Unresponsiveness/Lethargy, Stereotypy, Hyperactivity, Inappropriate Speech, and Social Avoidance.

[4] = Placebo vs High dose, acute visit, FMRP undetectable subjects (n = 5)
[5] = Placebo vs High dose, acute visit, male subjects (n = 9)
[6] = Placebo vs High dose, chronic visit, FMRP undetectable subjects (n = 5)
[7] = Placebo vs High dose, chronic visit, all subjects (n = 12)
[8] = Placebo vs High dose, chronic visit, male subjects (n = 9)
[9] = Placebo vs Low dose, acute visit, all subjects (n = 12)
[10] = Placebo vs Low dose, acute visit, male subjects (n = 9)
[11] = Placebo vs Low dose, chronic visit, FMRP undetectable subjects (n = 5)
[12] = Placebo vs Low dose, chronic visit, all subjects (n = 12)
[13] = Placebo vs Low dose, chronic visit, male subjects (n = 9)
[14] = high dose relative to low dose, acute, male patients
[15] = high dose relative to low dose, acute, peripheral FMRP nondetectable patients
[16] = high dose relative to low dose, chronic, all patients
[17] = high dose relative to low dose, chronic, male patients
[18] = high dose relative to low dose, chronic, peripheral FMRP nondetectable patients
[19] = low dose vs placebo, chronic, male detectable FMRP group

CCCNC(=O)c1nnc2c(-c3c(F)cccc3OC)cccc2c1N [AZD7325, 4-amino-8-(2-fluoro-6-methoxyphenyl)-N-propylcinnoline-3-carboxamide]
ABC lethargy and social withdrawal ([1]; low dose, patients having detectable peripheral FMRP): increases | ABC lethargy and social withdrawal ([1]; low dose, patients having undetectable peripheral FMRP): reduction; also recorded: reduces | ABC irritability ([1]; low dose, regardless of FMRP status (trending), baseline to chronic): reduction; also recorded: reduces | ABC_C_Subscale_1 Irritability ([1]; high dose, baseline): 7.6 ± 7.44 | ABC_C_Subscale_2 Lethargy ([1]; high dose, baseline): 3.2 ± 3.11 | ABC_C_Subscale_3 Stereotypy ([1]; high dose, baseline): 5.0 ± 1.87 | ABC_C_Subscale_4 Hyperactivity ([1]; high dose, baseline): 9.4 ± 10.74 | ABC_C_Subscale_5 Inappropriate Speech ([1]; high dose, baseline): 5.6 ± 4.56 | ABC_C_Subscale_1 Irritability ([1]; high dose, chronic): 7.2 ± 5.36 | ABC_C_Subscale_2 Lethargy ([1]; high dose, chronic): 1.8 ± 1.48 | ABC_C_Subscale_3 Stereotypy ([1]; high dose, chronic): 3.4 ± 0.55 | ABC_C_Subscale_4 Hyperactivity ([1]; high dose, chronic): 7.0 ± 9.06 | ABC_C_Subscale_5 Inappropriate Speech ([1]; high dose, chronic): 4.4 ± 3.78 | ABC_C_Subscale_1 Irritability ([1]; low dose, baseline): 7.6 ± 7.44 | ABC_C_Subscale_2 Lethargy ([1]; low dose, baseline): 3.6 ± 2.97 | ABC_C_Subscale_3 Stereotypy ([1]; low dose, baseline): 3.8 ± 2.28 | ABC_C_Subscale_4 Hyperactivity ([1]; low dose, baseline): 7.8 ± 7.16 | ABC_C_Subscale_5 Inappropriate Speech ([1]; low dose, baseline): 5.4 ± 4.16 | ABC_C_Subscale_1 Irritability ([1]; low dose, chronic): 7.4 ± 8.02 | ABC_C_Subscale_2 Lethargy ([1]; low dose, chronic): 4.6 ± 2.70 | ABC_C_Subscale_3 Stereotypy ([1]; low dose, chronic): 4.6 ± 3.05 | ABC_C_Subscale_4 Hyperactivity ([1]; low dose, chronic): 7.2 ± 8.07 | ABC_C_Subscale_5 Inappropriate Speech ([1]; low dose, chronic): 4.6 ± 3.29 | EEG relative band power: alpha2 [2, 4]: local distant small clusters | EEG relative band power: beta [2, 4]: elevated broadly in the central and parietal regions | EEG relative band power: delta [2, 4]: local distant small clusters | EEG relative band power: alpha2 [2, 5]: central frontal power decrease | EEG relative band power: beta [2, 5]: elevates a broad region in the central and parietal regions | EEG relative band power: gamma1 [2, 5]: elevated electrodes in the right frontal region | EEG relative band power: beta [2, 6]: isolated electrodes in the parietal and occipital areas elevated | EEG relative band power: gamma [2, 6]: isolated electrodes in the parietal and occipital areas elevated | EEG relative band power: theta [2, 6]: decreased in the posterior area | EEG relative band power: beta [2, 7]: electrodes in the parietal and occipital areas elevated | EEG relative band power: gamma [2, 7]: electrodes in the parietal and occipital areas elevated | EEG relative band power: theta [2, 7]: decrease in the central area | EEG relative band power: beta [2, 8]: electrodes in the parietal and occipital areas elevated | EEG relative band power: gamma [2, 8]: electrodes in the parietal and occipital areas elevated | EEG relative band power: theta [2, 8]: decrease in the central area | EEG relative band power: beta ([2]; Placebo vs Low dose, acute visit, FMRP undetectable subjects (n = 5)): limited numbers of significantly effected electrodes | EEG relative band power: beta [2, 9]: limited numbers of significantly effected electrodes | EEG relative band power: theta [2, 9]: limited numbers of significantly effected electrodes | EEG relative band power: alpha [2, 10]: limited numbers of significantly effected electrodes | EEG relative band power: beta [2, 10]: limited numbers of significantly effected electrodes | EEG relative band power: beta [2, 11]: elevates beta power | EEG relative band power: theta [2, 11]: reduces theta band power | EEG relative band power: beta [2, 12]: increases beta and gamma band in the parietal region | EEG relative band power: gamma [2, 12]: increases beta and gamma band in the parietal region | EEG relative band power: theta [2, 12]: reduces theta band | EEG relative band power: alpha [2, 13]: retain consistent | EEG relative band power: beta [2, 13]: increases beta and gamma bands in the parietal | EEG relative band power: theta [2, 13]: reduces theta band | EEG relative band power: beta ([2]; high dose relative to low dose, acute, all patients): elevate in multiple clusters | EEG relative band power: alpha2 [2, 14]: decreased power cluster in the right central region | EEG relative band power: beta [2, 14]: elevate in multiple clusters | EEG relative band power: beta [2, 15]: elevate in multiple clusters | EEG relative band power: delta (left frontal cluster) [2, 15]: reduced delta band power | EEG relative band power: alpha2 (frontal) [2, 16]: decrease | EEG relative band power: beta [2, 16]: scattered elevated spots | EEG relative band power: delta [2, 16]: scattered elevated spots | EEG relative band power: gamma [2, 16]: scattered elevated spots | EEG relative band power: alpha2 (frontal area) [2, 17]: decrease in relative power | EEG relative band power: delta [2, 17]: electrode in left central area elevated | EEG relative band power: gamma sub-bands [2, 17]: No significant change | EEG relative band power: alpha2 (temporal side) [2, 18]: decrease in relative power | EEG relative band power: beta (temporal side) [2, 18]: decrease in relative power | EEG relative band power: gamma bands [2, 18]: same occipital electrode elevated | EEG power (beta band) ([2]; low dose vs placebo, chronic, female (detectable FMRP)): does not effect | EEG beta power [2, 19]: elevates beta power | EEG gamma 1 power (E31) [2, 19]: elevates gamma 1 power | EEG theta band power [2, 19]: reduces theta band power | EEG band power: gamma bands ([2]; low dose vs placebo, chronic, male subjects, parietal): increases beta and gamma bands in the parietal | EEG gamma 1 power (E31) ([2]; low dose vs placebo, chronic, nondetectable FMRP group): elevates gamma 1 power | EEG gamma 1 power ([2]; low dose, chronic, female subjects): does not grow gamma 1 power | gamma waves (EEG) ([2]; low dose, male patients having undetectable peripheral FMRP): decreased gamma waves | ABC_FXS_Subscale_1 Irritability ([3]; high dose, baseline): 10.2 ± 10.52 | ABC_FXS_Subscale_2 Socially Unresponsive/Lethargic ([3]; high dose, baseline): 1.8 ± 1.92 | ABC_FXS_Subscale_3 Stereotypy ([3]; high dose, baseline): 5.0 ± 1.87 | ABC_FXS_Subscale_4 Hyperactivity ([3]; high dose, baseline): 6.4 ± 6.80 | ABC_FXS_Subscale_5 Inappropriate Speech ([3]; high dose, baseline): 5.6 ± 4.56 | ABC_FXS_Subscale_6 Social Avoidance ([3]; high dose, baseline): 1.2 ± 1.79 | ABC_FXS_Subscale_1 Irritability ([3]; high dose, chronic): 9.2 ± 7.05 | ABC_FXS_Subscale_2 Socially Unresponsive/Lethargic ([3]; high dose, chronic): 1.0 ± 1.22 | ABC_FXS_Subscale_3 Stereotypy ([3]; high dose, chronic): 3.4 ± 0.55 | ABC_FXS_Subscale_4 Hyperactivity ([3]; high dose, chronic): 4.6 ± 6.31 | ABC_FXS_Subscale_5 Inappropriate Speech ([3]; high dose, chronic): 4.4 ± 3.78 | ABC_FXS_Subscale_6 Social Avoidance ([3]; high dose, chronic): 0.6 ± 0.89 | ABC_FXS_Subscale_1 Irritability ([3]; low dose, baseline): 9.8 ± 8.23 | ABC_FXS_Subscale_2 Socially Unresponsive/Lethargic ([3]; low dose, baseline): 2.4 ± 1.52 | ABC_FXS_Subscale_3 Stereotypy ([3]; low dose, baseline): 3.8 ± 2.28 | ABC_FXS_Subscale_4 Hyperactivity ([3]; low dose, baseline): 4.2 ± 3.77 | ABC_FXS_Subscale_5 Inappropriate Speech ([3]; low dose, baseline): 5.4 ± 4.16 | ABC_FXS_Subscale_6 Social Avoidance ([3]; low dose, baseline): 2.0 ± 1.87 | ABC_FXS_Subscale_1 Irritability ([3]; low dose, chronic): 9.4 ± 9.99 | ABC_FXS_Subscale_2 Socially Unresponsive/Lethargic ([3]; low dose, chronic): 2.2 ± 2.39 | ABC_FXS_Subscale_3 Stereotypy ([3]; low dose, chronic): 4.6 ± 3.05 | ABC_FXS_Subscale_4 Hyperactivity ([3]; low dose, chronic): 4.4 ± 4.98 | ABC_FXS_Subscale_5 Inappropriate Speech ([3]; low dose, chronic): 4.6 ± 3.29 | ABC_FXS_Subscale_6 Social Avoidance ([3]; low dose, chronic): 2.4 ± 1.82
